Results published in ChEMBL document CHEMBL4706623, “GPR52 Antagonist Reduces Huntingtin Levels and Ameliorates Huntington's Disease-Related Phenotypes” (J Med Chem, 2021).

Biological target: G-protein coupled receptor 52 (Homo sapiens, UniProt Q9Y2T5)
Assay: Antagonist activity at GPR52 (unknown origin) expressed in HEK293 cells assessed as inhibition of WO459-induced cAMP accumulation preincubated for 15 mins followed by WO459 addition and measured after 30 mins by LANCE Ultra cAMP kit based microplate reader analysis
Assay type: functional, cell-based
Details: read-out: IC50

Chain of G-protein coupled receptor 52 (Q9Y2T5 whole entry): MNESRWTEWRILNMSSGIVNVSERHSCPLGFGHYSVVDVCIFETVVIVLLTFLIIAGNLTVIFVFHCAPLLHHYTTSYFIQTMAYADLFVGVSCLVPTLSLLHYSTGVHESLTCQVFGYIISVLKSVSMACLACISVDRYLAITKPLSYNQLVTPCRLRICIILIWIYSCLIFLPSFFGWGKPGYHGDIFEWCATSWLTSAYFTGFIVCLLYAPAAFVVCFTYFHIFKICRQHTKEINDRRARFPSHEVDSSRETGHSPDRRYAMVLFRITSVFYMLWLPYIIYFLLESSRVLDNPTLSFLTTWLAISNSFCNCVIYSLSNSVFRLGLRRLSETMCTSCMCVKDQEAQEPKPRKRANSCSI

## O=C(/C=C/CCc1ccccc1)c1ccccc1F
  IC50: 1760 nM

## O=C(/C=C/CCc1ccc(Br)cc1)c1ccccc1
  IC50: 1810 nM

## COc1cccc(C(=O)/C=C/CCc2ccccc2)c1
  IC50: 1490 nM

## O=C(/C=C/CCc1ccccc1)c1ccc2ccccc2c1
  IC50: 3540 nM

## Cc1cccc(C(=O)/C=C/CCc2ccccc2)c1
  IC50: 2570 nM

## O=C(/C=C/CCc1ccccc1)CCc1ccccc1
  IC50: 5450 nM

## COc1ccccc1C(=O)/C=C/CCc1ccccc1
  IC50: 1720 nM

## O=C(/C=C/CCc1ccccc1)c1ccccc1-c1ccccc1
  IC50: 1230 nM

## O=C(/C=C/CCc1ccccc1)c1cccc(F)c1
  IC50: 2370 nM

## O=C(/C=C/CCc1ccccc1Br)c1ccccc1
  IC50: 1640 nM

## COc1ccc(C(=O)/C=C/CCc2ccccc2)cc1
  IC50: 3870 nM
